Laboratory results reported in PubChem BioAssay AID1918958 (Molecular Pharmacology Branch, DTP, NCI, 2023).

Test system: NCI-H196 complex spheroid viability
Experiment: Anticancer human tumor NCI-H196 cell line growth inhibition [LSD1];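 note: spheroids exposed to agents for 7 days before readout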;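 for viability, T/C: 100% = DMSO vehicle control viability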
Conditions: for IC50: curve of first compound; for viability, T/C: stronger effect = lower value
Method in brief: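 Complex spheroids of tumor cells with HUVEC and human MSCs, exposed to iadademstat combined with other agents. Each agent tested in half-log steps from near clinical Cmax (else 10 microM top), DMSO ≤0.25%.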

[1] = second compound 0.1 µM, first compound 0.00316 µM
[2] = second compound 0.1 µM, first compound 0.01 µM
[3] = second compound 0.1 µM, first compound 0.0316 µM
[4] = second compound 0.1 µM, first compound 0.1 µM
[5] = second compound 0.316 µM, first compound 0.00316 µM
[6] = second compound 0.316 µM, first compound 0.01 µM
[7] = second compound 0.316 µM, first compound 0.0316 µM
[8] = second compound 0.316 µM, first compound 0.1 µM
[9] = second compound 1 µM, first compound 0.00316 µM
[10] = second compound 1 µM, first compound 0.01 µM
[11] = second compound 1 µM, first compound 0.0316 µM
[12] = second compound 1 µM, first compound 0.1 µM
[13] = second compound 3.16 µM, first compound 0.00316 µM
[14] = second compound 3.16 µM, first compound 0.01 µM
[15] = second compound 3.16 µM, first compound 0.0316 µM
[16] = second compound 3.16 µM, first compound 0.1 µM
[17] = second compound 10 µM, first compound 0.00316 µM
[18] = second compound 10 µM, first compound 0.01 µM
[19] = second compound 10 µM, first compound 0.0316 µM
[20] = second compound 10 µM, first compound 0.1 µM
[21] = second compound 0.1 µM, first compound 0.00949 µM
[22] = second compound 0.1 µM, first compound 0.03 µM
[23] = second compound 0.1 µM, first compound 0.0949 µM
[24] = second compound 0.1 µM, first compound 0.3 µM
[25] = second compound 0.1 µM, first compound 0.949 µM
[26] = second compound 0.1 µM, first compound 3 µM
[27] = second compound 0.316 µM, first compound 0.00949 µM
[28] = second compound 0.316 µM, first compound 0.03 µM
[29] = second compound 0.316 µM, first compound 0.0949 µM
[30] = second compound 0.316 µM, first compound 0.3 µM
[31] = second compound 0.316 µM, first compound 0.949 µM
[32] = second compound 0.316 µM, first compound 3 µM
[33] = second compound 1 µM, first compound 0.00949 µM
[34] = second compound 1 µM, first compound 0.03 µM
[35] = second compound 1 µM, first compound 0.0949 µM
[36] = second compound 1 µM, first compound 0.3 µM
[37] = second compound 1 µM, first compound 0.949 µM
[38] = second compound 1 µM, first compound 3 µM
[39] = second compound 3.16 µM, first compound 0.00949 µM
[40] = second compound 3.16 µM, first compound 0.03 µM
[41] = second compound 3.16 µM, first compound 0.0949 µM
[42] = second compound 3.16 µM, first compound 0.3 µM
[43] = second compound 3.16 µM, first compound 0.949 µM
[44] = second compound 3.16 µM, first compound 3 µM
[45] = second compound 10 µM, first compound 0.00949 µM
[46] = second compound 10 µM, first compound 0.03 µM
[47] = second compound 10 µM, first compound 0.0949 µM
[48] = second compound 10 µM, first compound 0.3 µM
[49] = second compound 10 µM, first compound 0.949 µM
[50] = second compound 10 µM, first compound 3 µM

COc1cc(Nc2ncc3c(n2)-c2ccc(Cl)cc2C(c2c(F)cccc2OC)=NC3)ccc1C(=O)O + NC1CCC(NC2CC2c2ccccc2)CC1
IC50 (second compound 0.1 µM): > 1000 nM
IC50 (second compound 0.316 µM): > 1000 nM
IC50 (second compound 1 µM): > 1000 nM
IC50 (second compound 3.16 µM): > 1000 nM
IC50 (second compound 10 µM): > 1000 nM
viability, T/C [1]: 94.8%
viability, T/C [2]: 107%
viability, T/C [3]: 122%
viability, T/C [4]: 116%
viability, T/C (second compound 0.1 µM, first compound 0.316 µM): 134%
viability, T/C (second compound 0.1 µM, first compound 1 µM): 121%
viability, T/C [5]: 99.2%
viability, T/C [6]: 103%
viability, T/C [7]: 112%
viability, T/C [8]: 131%
viability, T/C (second compound 0.316 µM, first compound 0.316 µM): 123%
viability, T/C (second compound 0.316 µM, first compound 1 µM): 138%
viability, T/C [9]: 94.4%
viability, T/C [10]: 108%
viability, T/C [11]: 102%
viability, T/C [12]: 113%
viability, T/C (second compound 1 µM, first compound 0.316 µM): 126%
viability, T/C (second compound 1 µM, first compound 1 µM): 119%
viability, T/C [13]: 95.7%
viability, T/C [14]: 105%
viability, T/C [15]: 110%
viability, T/C [16]: 103%
viability, T/C (second compound 3.16 µM, first compound 0.316 µM): 128%
viability, T/C (second compound 3.16 µM, first compound 1 µM): 126%
viability, T/C [17]: 92.2%
viability, T/C [18]: 107%
viability, T/C [19]: 97.6%
viability, T/C [20]: 116%
viability, T/C (second compound 10 µM, first compound 0.316 µM): 125%
viability, T/C (second compound 10 µM, first compound 1 µM): 113%

Cn1ncnc1C1c2n[nH]c(=O)c3cc(F)cc(c23)NC1c1ccc(F)cc1 (stereo not given) + NC1CCC(NC2CC2c2ccccc2)CC1
IC50 (second compound 0.1 µM): > 100 nM
IC50 (second compound 0.316 µM): > 100 nM
IC50 (second compound 1 µM): > 100 nM
IC50 (second compound 3.16 µM): > 100 nM
IC50 (second compound 10 µM): > 100 nM
viability, T/C (second compound 0.1 µM, first compound 0.000316 µM): 93.4%
viability, T/C (second compound 0.1 µM, first compound 0.001 µM): 110%
viability, T/C [1]: 95.6%
viability, T/C [2]: 94.8%
viability, T/C [3]: 98.5%
viability, T/C [4]: 99.6%
viability, T/C (second compound 0.316 µM, first compound 0.000316 µM): 100%
viability, T/C (second compound 0.316 µM, first compound 0.001 µM): 102%
viability, T/C [5]: 101%
viability, T/C [6]: 92.8%
viability, T/C [7]: 93.9%
viability, T/C [8]: 92.5%
viability, T/C (second compound 1 µM, first compound 0.000316 µM): 95.5%
viability, T/C (second compound 1 µM, first compound 0.001 µM): 98.4%
viability, T/C [9]: 97.4%
viability, T/C [10]: 98.1%
viability, T/C [11]: 94.3%
viability, T/C [12]: 94.4%
viability, T/C (second compound 3.16 µM, first compound 0.000316 µM): 90.7%
viability, T/C (second compound 3.16 µM, first compound 0.001 µM): 99.8%
viability, T/C [13]: 98.3%
viability, T/C [14]: 88.8%
viability, T/C [15]: 95.9%
viability, T/C [16]: 93.9%
viability, T/C (second compound 10 µM, first compound 0.000316 µM): 97.2%
viability, T/C (second compound 10 µM, first compound 0.001 µM): 106%
viability, T/C [17]: 95.9%
viability, T/C [18]: 104%
viability, T/C [19]: 94.3%
viability, T/C [20]: 91.3%

NS(=O)(=O)OCC1CC(n2ccc3c(NC4CCc5ccccc54)ncnc32)CC1O (stereo not given) + NC1CCC(NC2CC2c2ccccc2)CC1
IC50 (second compound 0.1 µM): > 3000 nM
IC50 (second compound 0.316 µM): > 3000 nM
IC50 (second compound 1 µM): > 3000 nM
IC50 (second compound 3.16 µM): > 3000 nM
IC50 (second compound 10 µM): > 3000 nM
viability, T/C [21]: 109%
viability, T/C [22]: 103%
viability, T/C [23]: 79.6%
viability, T/C [24]: 89.3%
viability, T/C [25]: 84.7%
viability, T/C [26]: 71.4%
viability, T/C [27]: 108%
viability, T/C [28]: 104%
viability, T/C [29]: 79.2%
viability, T/C [30]: 78%
viability, T/C [31]: 78.6%
viability, T/C [32]: 72.7%
viability, T/C [33]: 103%
viability, T/C [34]: 101%
viability, T/C [35]: 76.2%
viability, T/C [36]: 81.8%
viability, T/C [37]: 82.7%
viability, T/C [38]: 77.6%
viability, T/C [39]: 92.5%
viability, T/C [40]: 109%
viability, T/C [41]: 77.7%
viability, T/C [42]: 80.5%
viability, T/C [43]: 76.9%
viability, T/C [44]: 71.6%
viability, T/C [45]: 102%
viability, T/C [46]: 95.4%
viability, T/C [47]: 73.6%
viability, T/C [48]: 83.6%
viability, T/C [49]: 78.3%
viability, T/C [50]: 64.7%

O=C(C=Cc1cccc(S(=O)(=O)Nc2ccccc2)c1)NO + NC1CCC(NC2CC2c2ccccc2)CC1
IC50 (second compound 0.1 µM): 163 nM
IC50 (second compound 0.316 µM): 139 nM
IC50 (second compound 1 µM): 158 nM
IC50 (second compound 3.16 µM): 145 nM
IC50 (second compound 10 µM): 138 nM
viability, T/C [21]: 99.6%
viability, T/C [22]: 103%
viability, T/C [23]: 75.4%
viability, T/C [24]: 21.1%
viability, T/C [25]: 0.51%
viability, T/C [26]: 0.44%
viability, T/C [27]: 93.9%
viability, T/C [28]: 101%
viability, T/C [29]: 65.8%
viability, T/C [30]: 16.7%
viability, T/C [31]: 0.24%
viability, T/C [32]: 1.63%
viability, T/C [33]: 94.5%
viability, T/C [34]: 93.4%
viability, T/C [35]: 75.4%
viability, T/C [36]: 18.4%
viability, T/C [37]: 0.31%
viability, T/C [38]: 0.36%
viability, T/C [39]: 96.9%
viability, T/C [40]: 92.3%
viability, T/C [41]: 68.5%
viability, T/C [42]: 18.5%
viability, T/C [43]: 0.41%
viability, T/C [44]: 0.27%
viability, T/C [45]: 88.8%
viability, T/C [46]: 89.8%
viability, T/C [47]: 64.7%
viability, T/C [48]: 18.6%
viability, T/C [49]: 0.76%
viability, T/C [50]: 0.84%
